What was measured:
[1] = system: SKOV3 cells (Ovarian carcinoma); test: In vitro cellular inhibitory activity, XTT method; assay type: cell-based; conditions: Homo sapiens, SK-OV-3, 72 hours, read-out: in vitro cellular inhibitory activities on SKOV3 IC50
Protocol: (§1) In vitro cellular inhibitory activity of the present compounds
(§2) 1. Formulating the agents and the compounds
(§3) 2) Formulating the XTT working liquor: […]
(§4) The mixture was filtered, packaged separately, and used immediately or within one week. It is necessary for all of the processes to be kept in darkness.
(§5) 3) Formulating test compounds
(§6) Formulating a stock solution of test compound: […]
(§7) The compound powder was dissolved into DMSO until a concentration of 10 mM reached.
(§8) Formulating gradient dilute solutions of test compound: […]
(§9) First, the 10 mM stock solution of test compound was diluted with DMSO in a 4-fold successive gradient for 10 concentrations. 2 μL DMSO-diluted compound was added to 998 μL of the culture medium containing 10% FBS. Therefore, the maximum concentration of the compound is 20 μM, the concentration of DMSO is 0.2%, and there are 10 concentration gradients in total.
(§10) 1) Preparing the cell suspension
(§11) The culture medium was removed from the culture bottle. The cells were rinsed twice with PBS. The pancreatic enzyme was added to digest cells. The digested cells were collected by centrifuge. The cells were resuspended with a culture medium containing 10% fetal calf serum, counted and adjusted to an appropriate concentration (the cell viability should be over 90%). The cell concentration was 5×10^4/ml.
(§12) 2) The cell suspension was added to the 96-well plate, 100 μL per well.
(§13) 3) The plate was placed in the incubator and incubated at 37° C. under 5% CO2 overnight.
(§14) Drugs were added to the cell culture plate. The plate was placed in the incubator and incubated at 37° C. under 5% CO2 for 72 hours.
(§15) 5. Testing the cell viability with the XTT method
(§16) The XTT working solution was added to the plate. The plate was placed in the incubator and incubated at 37° C. under 5% CO2 for 2 hr. Then the plate was placed in a microplate reader to read the absorbance at 450 nm.
(§17) 2) Data were input into GraphPad Prism 5.0 to plot a curve and obtain IC50.

[2] = system: H1975 Cells (NSCLC, non-small cell lung cancer); test: In vitro cellular inhibitory activity, XTT method; assay type: cell-based; conditions: Homo sapiens, NCI-H1975, 72 hours, read-out: in vitro cellular inhibitory activities on H1975 IC50
Protocol: as §1, §2, §3, §4, §5, §6, §7, §8, §9, §10, §11, §12, §13, §14, §15, §16, §17

[3] = biological target: T1, EGFR: human epidermal growth factor receptor (Homo sapiens, UniProt P00533); test: In vitro enzyme inhibitory activity (Caliper, FAM labeled peptide); assay type: biochemical; conditions: EGFR kinase, 28° C., 1 h
T1 construct: purchased Carna
T1 sequence (P00533 25-1210): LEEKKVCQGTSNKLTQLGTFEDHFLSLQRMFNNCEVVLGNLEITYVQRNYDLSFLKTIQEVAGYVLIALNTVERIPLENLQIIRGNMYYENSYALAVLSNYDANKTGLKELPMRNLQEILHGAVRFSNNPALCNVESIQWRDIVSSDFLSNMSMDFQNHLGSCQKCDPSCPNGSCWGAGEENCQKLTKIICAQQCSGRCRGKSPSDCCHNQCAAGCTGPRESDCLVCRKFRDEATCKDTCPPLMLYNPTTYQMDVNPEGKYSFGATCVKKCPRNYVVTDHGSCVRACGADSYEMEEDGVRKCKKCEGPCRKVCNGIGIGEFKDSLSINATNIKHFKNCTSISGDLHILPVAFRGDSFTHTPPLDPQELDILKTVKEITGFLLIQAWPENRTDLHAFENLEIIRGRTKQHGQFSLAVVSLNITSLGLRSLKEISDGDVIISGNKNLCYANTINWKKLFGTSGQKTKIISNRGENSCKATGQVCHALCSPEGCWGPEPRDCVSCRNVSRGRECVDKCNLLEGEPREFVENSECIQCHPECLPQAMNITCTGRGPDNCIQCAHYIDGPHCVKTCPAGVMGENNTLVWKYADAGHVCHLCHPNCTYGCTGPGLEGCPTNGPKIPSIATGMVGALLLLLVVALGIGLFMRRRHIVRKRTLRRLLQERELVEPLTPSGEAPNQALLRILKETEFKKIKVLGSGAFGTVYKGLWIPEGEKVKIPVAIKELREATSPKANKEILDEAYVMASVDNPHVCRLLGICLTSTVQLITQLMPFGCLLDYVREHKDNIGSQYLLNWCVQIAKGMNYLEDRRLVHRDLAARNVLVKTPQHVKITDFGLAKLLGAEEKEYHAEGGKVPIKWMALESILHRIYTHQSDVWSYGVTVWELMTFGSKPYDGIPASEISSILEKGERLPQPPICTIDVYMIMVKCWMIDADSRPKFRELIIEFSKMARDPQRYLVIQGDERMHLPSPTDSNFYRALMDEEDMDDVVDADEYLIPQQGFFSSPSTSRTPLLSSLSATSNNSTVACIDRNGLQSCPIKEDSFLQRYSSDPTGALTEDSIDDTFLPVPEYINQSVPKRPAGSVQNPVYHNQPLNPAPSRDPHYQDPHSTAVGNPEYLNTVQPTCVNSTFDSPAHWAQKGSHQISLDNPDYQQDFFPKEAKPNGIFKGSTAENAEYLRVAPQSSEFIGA
Protocol: (§18) In vitro enzyme inhibitory activity of the present compounds
EGFR: human epidermal growth factor receptor (Carna);
(§19) 1. Formulating the agents to be used in the assay
(§20) (3) Stop buffer (100 mM HEPES, pH 7.5, 0.015% Brij-35, 0.2% Coating Reagent #3, 50 mM EDTA);
(§21) (6) 5-fold compound solutions (using 100% DMSO to formulate 50-fold compound solutions having different concentration gradients, and diluting with water by 10 times to obtain 5-fold compound solutions having different concentration gradients);
(§22) 2. Adding 5 μL of a 5-fold compound solution to a 384-well plate;
(§23) 3. Adding 10 μL of a 2.5-fold kinase solution to incubate for 10 min;
(§24) 4. Then adding 10 μL of a 2.5-fold peptide solution, and reacting at 28° C. for 1 h; and
(§25) 5. Finally, adding 25 μL of stop buffer to terminate the reaction, and reading the data with Caliper.
(§26) 6. Curve fitting to obtain an IC50 value. The calculated inhibition ratio (%)=(the maximum conversion rate−the conversion rate)/(the maximum conversion rate−the minimum conversion rate)×100
(§27) The curve fitting was conducted with the Xlfit software to obtain IC50 values.

[4] = biological target: T2, HER2: human epidermal growth factor receptor 2 (Homo sapiens, UniProt P04626); test: as above; assay type: biochemical; conditions: HER2 kinase, 28° C., 1 h
T2 construct: purchased Carna
T2 sequence (P04626 23-1255): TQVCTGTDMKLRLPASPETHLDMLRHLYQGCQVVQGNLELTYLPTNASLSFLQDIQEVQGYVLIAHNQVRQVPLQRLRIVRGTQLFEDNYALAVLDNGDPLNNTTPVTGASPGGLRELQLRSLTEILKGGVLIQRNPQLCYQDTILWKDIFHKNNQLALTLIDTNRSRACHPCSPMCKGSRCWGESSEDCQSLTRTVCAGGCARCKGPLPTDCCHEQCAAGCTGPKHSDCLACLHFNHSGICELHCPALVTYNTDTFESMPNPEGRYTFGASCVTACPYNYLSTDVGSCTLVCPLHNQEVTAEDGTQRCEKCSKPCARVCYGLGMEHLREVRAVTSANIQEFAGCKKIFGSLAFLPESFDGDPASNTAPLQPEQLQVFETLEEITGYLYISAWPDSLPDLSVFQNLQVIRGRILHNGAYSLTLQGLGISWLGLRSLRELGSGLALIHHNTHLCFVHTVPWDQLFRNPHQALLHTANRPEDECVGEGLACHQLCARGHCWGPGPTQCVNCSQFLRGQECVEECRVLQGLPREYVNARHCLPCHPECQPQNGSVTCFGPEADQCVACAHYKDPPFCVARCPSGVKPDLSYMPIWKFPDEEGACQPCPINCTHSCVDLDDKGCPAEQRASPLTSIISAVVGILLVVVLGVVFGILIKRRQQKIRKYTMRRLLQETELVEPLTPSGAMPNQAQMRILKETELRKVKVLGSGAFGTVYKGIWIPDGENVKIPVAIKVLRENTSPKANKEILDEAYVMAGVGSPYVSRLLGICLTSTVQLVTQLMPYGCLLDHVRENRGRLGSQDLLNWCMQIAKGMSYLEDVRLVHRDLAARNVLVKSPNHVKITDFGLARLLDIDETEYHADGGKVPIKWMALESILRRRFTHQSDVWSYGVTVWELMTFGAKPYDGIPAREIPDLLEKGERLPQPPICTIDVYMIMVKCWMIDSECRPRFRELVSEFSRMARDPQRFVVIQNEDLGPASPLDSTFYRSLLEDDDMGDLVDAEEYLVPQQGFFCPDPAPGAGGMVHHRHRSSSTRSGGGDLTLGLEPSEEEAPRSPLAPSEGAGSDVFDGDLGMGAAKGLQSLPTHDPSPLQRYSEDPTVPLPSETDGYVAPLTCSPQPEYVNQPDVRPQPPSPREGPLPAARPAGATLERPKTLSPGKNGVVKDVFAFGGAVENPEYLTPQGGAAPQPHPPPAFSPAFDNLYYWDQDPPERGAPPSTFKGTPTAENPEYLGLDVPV
Protocol: as §18
HER2: human epidermal growth factor receptor 2 (Carna);
as §19, §20, §21, §22, §23, §24, §25, §26, §27

[5] = biological target: T3, HER4: human epidermal growth factor receptor 4 (Homo sapiens, UniProt Q15303); test: as above; assay type: biochemical; conditions: HER4 kinase, 28° C., 1 h
T3 construct: purchased Carna
T3 sequence (Q15303 26-1308): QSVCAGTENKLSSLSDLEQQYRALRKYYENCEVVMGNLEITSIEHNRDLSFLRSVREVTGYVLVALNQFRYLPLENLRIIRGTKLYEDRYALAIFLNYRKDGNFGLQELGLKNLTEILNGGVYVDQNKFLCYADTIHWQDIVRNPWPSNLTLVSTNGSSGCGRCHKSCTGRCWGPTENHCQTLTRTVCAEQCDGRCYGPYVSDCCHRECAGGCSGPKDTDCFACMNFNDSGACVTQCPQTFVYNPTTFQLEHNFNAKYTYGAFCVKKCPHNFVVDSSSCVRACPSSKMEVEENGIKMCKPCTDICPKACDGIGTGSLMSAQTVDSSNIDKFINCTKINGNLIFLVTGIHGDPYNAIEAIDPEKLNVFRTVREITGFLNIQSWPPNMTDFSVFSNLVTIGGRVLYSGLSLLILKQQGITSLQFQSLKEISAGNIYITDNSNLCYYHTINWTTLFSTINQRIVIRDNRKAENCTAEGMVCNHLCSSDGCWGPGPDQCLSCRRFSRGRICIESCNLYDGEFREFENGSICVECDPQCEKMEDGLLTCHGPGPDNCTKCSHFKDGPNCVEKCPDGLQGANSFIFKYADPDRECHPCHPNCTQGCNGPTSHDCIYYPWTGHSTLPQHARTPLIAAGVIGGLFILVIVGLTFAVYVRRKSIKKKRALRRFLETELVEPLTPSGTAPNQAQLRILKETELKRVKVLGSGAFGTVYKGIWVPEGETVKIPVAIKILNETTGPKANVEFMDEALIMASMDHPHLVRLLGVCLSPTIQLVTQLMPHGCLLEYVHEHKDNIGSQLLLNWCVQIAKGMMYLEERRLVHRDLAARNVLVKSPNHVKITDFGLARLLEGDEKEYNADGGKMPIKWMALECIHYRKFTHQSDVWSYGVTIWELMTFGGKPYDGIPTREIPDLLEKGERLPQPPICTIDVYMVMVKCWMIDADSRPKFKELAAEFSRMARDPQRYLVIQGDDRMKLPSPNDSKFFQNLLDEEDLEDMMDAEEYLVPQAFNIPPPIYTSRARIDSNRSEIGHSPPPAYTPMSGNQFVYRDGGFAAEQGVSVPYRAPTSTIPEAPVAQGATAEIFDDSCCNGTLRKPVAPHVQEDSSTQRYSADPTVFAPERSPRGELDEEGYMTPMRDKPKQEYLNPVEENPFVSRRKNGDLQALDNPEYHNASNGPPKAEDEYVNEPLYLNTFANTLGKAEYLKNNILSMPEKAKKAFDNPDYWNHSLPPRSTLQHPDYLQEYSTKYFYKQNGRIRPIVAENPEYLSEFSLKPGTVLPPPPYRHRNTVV
Protocol: as §18
HER4: human epidermal growth factor receptor 4 (Carna).
as §19, §20, §21, §22, §23, §24, §25, §26, §27

[6] = system: A431 cells (Epidermoid carcinoma); test: In vitro cellular inhibitory activity, XTT method; assay type: cell-based; conditions: Homo sapiens, A-431, 72 hours, read-out: in vitro cellular inhibitory activities on A431 IC50
Protocol: as §1, §2, §3, §4, §5, §6, §7, §8, §9, §10, §11, §12, §13, §14, §15, §16, §17

IC50 [1] [nM]	IC50 [2] [nM]	IC50 [3] [nM]	IC50 [4] [nM]	IC50 [5] [nM]	IC50 [6] [nM]	SMILES
3060						COc1cc2ncnc(Nc3ccc(F)c(Cl)c3)c2cc1NC(=O)/C=C/CN1CCC2(CCC2)CC1 [Compound 17, (E)-N-[4-(3-chloro-4-fluorophenylamino)-7-methoxyquinazolin-6-yl]-4-(7-azaspiro[3.5]nonan-7-yl)-2-butenamide]
3190	91.9					COc1cc2ncnc(Nc3ccc(F)c(Cl)c3)c2cc1NC(=O)/C=C/CN1CCC2(CCC2)C1 [Compound 27, (E)-N-[4-(3-chloro-4-fluorophenylamino)-7-methoxyquinazolin-6-yl]-4-[6-azaspiro[3.4]octan-6-yl]-2-butenamide]
	39					COc1cc2ncnc(Nc3ccc(F)c(Cl)c3)c2cc1NC(=O)/C=C/CN1CCCC2(COC2)C1 [Compound 28, (E)-N-[4-(3-chloro-4-fluorophenylamino)-7-methoxyquinazolin-6-yl]-4-[2-oxa-6-azaspiro[3.5]nonan-6-yl]-2-butenamide]
3220	148	0.65	19	8.9	33.3	COc1cc2ncnc(Nc3ccc(F)c(Cl)c3)c2cc1NC(=O)/C=C/CN1CC2(CCC2)C1 [Compound 2]
3640	179					COc1cc2ncnc(Nc3ccc(F)c(Cl)c3)c2cc1NC(=O)/C=C/CN1CC2(CCCCC2)C1 [Compound 15, (E)-N-[4-(3-chloro-4-fluorophenylamino)-7-methoxyquinazolin-6-yl]-4-(2-azaspiro[3.5]nonan-2-yl)-2-butenamide]
		0.55	14	3.1		COc1cc2ncnc(Nc3ccc(F)c(Cl)c3)c2cc1NC(=O)/C=C/CN1CC2CC2C1 (stereo not drawn) [Compound 1, (E)-4-[3-azabicyclo[3.1.0]hexan-3-yl]-N-[4-(3-chloro-4-fluorophenylamino)-7-methoxyquinazolin-6-yl]-2-butenamide]
3350						COc1cc2ncnc(Nc3ccc(F)c(Cl)c3)c2cc1NC(=O)/C=C/CN1CCC2(CC1)CC2 [Compound 30, (E)-N-[4-(3-chloro-4-fluorophenylamino)-7-methoxyquinazolin-6-yl]-4-(6-azaspiro[2.5]octan-6-yl)-2-butenamide]
3960	356				548	COc1cc2ncnc(Nc3ccc(F)c(Cl)c3)c2cc1NC(=O)/C=C/CN1CCCCC1 [PF-00299804, reference compound]
3070	85.6					COc1cc2ncnc(Nc3ccc(F)c(Cl)c3)c2cc1NC(=O)/C=C/CN1CCC2(CC2)C1 [Compound 26, (E)-N-[4-(3-chloro-4-fluorophenylamino)-7-methoxyquinazolin-6-yl]-4-(5-azaspiro[2.4]heptan-5-yl)-2-butenamide]
3710	134					COc1cc2ncnc(Nc3ccc(F)c(Cl)c3)c2cc1NC(=O)/C=C/CN1CC2(CCCC2)C1 [Compound 14, (E)-N-[4-(3-chloro-4-fluorophenylamino)-7-methoxyquinazolin-6-yl]-4-(2-azaspiro[3.4]octan-2-yl)-2-butenamide]
	57.1					COc1cc2ncnc(Nc3ccc(F)c(Cl)c3)c2cc1NC(=O)/C=C/CN1CCC2(CC1)COC2 [Compound 29, (E)-N-[4-(3-chloro-4-fluorophenylamino)-7-methoxyquinazolin-6-yl]-4-(2-oxa-7-azaspiro[3.5]nonan-7-yl)-2-butenamide]
